Key:
[1] = tested on: vascular smooth muscle cells; test: VSMC proliferation induced by PDGF-BB (LDH and MTT assays); format: cell-based, Sprague-Dawley rats; conditions: LAB 1, 5, 10, 20, 30 μM pretreatment, PDGF-BB 24 hrs; LDH and MTT assays
Excerpt: Vascular smooth muscle cells ('VSMC' hereinafter) were separated from thoracic aorta of a Sprague-Dawley weighted about 100-150 g by using collagenase digestion method and then cultured them according to the method disclosed in previous studies [[…], et al. Role of p44/p42 MAP kinase in the age-dependent increase in vascular smooth muscle cell proliferation and neointimal formation. Arterioscler Thromb Vasc Biol. Feb. 1 2003; 23(2):204-210.; Hamaguchi A, Kim S, Izumi Y, et al. Contribution of extracellular signal-regulated kinase to angiotensin II-induced transforming growth factor-beta1 expression in vascular smooth muscle cells. Hypertension. July 1999; 34(1):126-131]. […] The VSMC was treated in a culture medium not containing serum for 24 hrs prior to treatment with PDGF-BB, and the reaction according to the presence or absence of PDGF-BB was analyzed after pretreating with LAB or other reagents. […] The cells were then washed twice with PBS, lysed by using 0.5% Triton-X100, and then the activity of lactate dehydronase (LDH) was measured by using CytoTox-ONETM assay kit (Promega, Madison, Wis., USA) with fluorescence at […]. […]

[2] = tested on: vascular smooth muscle cells; test: Cytotoxicity of LAB in VSMC; format: cell-based, Sprague-Dawley rats; conditions: LAB up to 30 μM
Experimental: The VSMC was treated in a culture medium not containing serum for 24 hrs prior to treatment with PDGF-BB, and the reaction according to the presence or absence of PDGF-BB was analyzed after pretreating with LAB or other reagents.
To investigate whether LAB decreases the proliferation of VSMC induced by PDGF-BB an experiment was performed as follows. The VSMC was placed in a culture medium not containing serum for 24 hrs to inhibit cell proliferation, and then pretreated with LAB with various concentrations of 1, 5, 10, 20, 30 μM and treated with PDGF-BB for 24 hrs. The extent of VSMC proliferation was compared with that of control as stated above via LDH and MTT assays (FIG. 1).

[3] = Acute toxicity due to oral administration in SD rats; format: in vivo; conditions: SD, rat, in vivo, 1 g/kg; oral, single administration
Experimental: (§1) Acute toxicity test was performed using 6 week old SPF SD rats. The SD rats were divided two per each group and each rat was orally administered once with LAB in the amount of 1 g/kg/1 mL, which was suspended in 0.5% methylcellulose. After the above administration, the rats were subjected to examination with regard to survival, clinical symptoms, change in body weight, and the like and also hematological examination, biochemical blood test. Further, autopsies were performed to observe abnormalities in abdominal organs.

SD rats = test: as above; format: in vivo
Experimental: as §1

**Q.** What does the source list for O=C(/C=C/c1ccc(O)c2c1[C@H](C(=O)O[C@H](Cc1ccc(O)c(O)c1)C(=O)[O-])[C@@H](c1ccc(O)c(O)c1)O2)O[C@H](Cc1ccc(O)c(O)c1)C(=O)[O-].[Mg+2] [LAB, lithospermate B]?
**A.** VSMC proliferation induced by PDGF-BB [1]: decreased in proportion to the concentration; adverse reaction in VSMC ([2]; highest concentration): no adverse reaction observed; cytotoxic activities ([2]; data not shown): no cytotoxic activities observed; LD50 [3]: > 500 mg/kg; dose without toxicity to rats (SD rats; oral, single administration): up to 500 mg/kg; survival (SD rats; single oral dose 1 g/kg in 0.5% methylcellulose): all experimental rats survived; clinical symptoms, toxicities and other abnormalities (SD rats; single oral dose 1 g/kg, body weight, hematology, blood biochemistry, autopsy): no abnormal clinical symptoms, no toxicities and other abnormalities
